target: BTK^C481S (Homo sapiens (Human), UniProt Q06187, C481S); assay: BTK enzyme activity assay; type: biochemical; settings: 200 μM ATP; 33P-ATP, filter-binding method
Method: The specific assay process of BTK enzyme activity assay is as follows: Buffer: 20 mM 2-[4-(2-hydroxyethyl)-1-piperazinyl]ethanesulfonic acid (Hepes) (pH 7.5), 10 mM magnesium chloride, 1 mM ethylenebis(oxyethylenenitrilo)tetraacetic acid (EGTA), 0.02% polyoxyethylene dodecyl ether (Brij35), 0.02 mg/mL BSA, 0.1 mM sodium vanadate (Na3VO4), 2 mM dithiothreitol (DTT), 1% DMSO, 200 μM adenosine triphosphate (ATP). • 1. The substrate was prepared in freshly prepared reaction buffer; • 2. The required cofactor was added to the above-mentioned substrate solution; • 3. The kinase BTK^C481S was added to the above-mentioned substrate solution and mixed well; • 4. The compound dissolved in DMSO was added to the kinase reaction mixture by Echo550 (Acoustic technology; nanoliter range), and the mixture was incubated at room temperature for 20 minutes; • 5. ^33P-ATP (specific radioactivity of 10 μCi/μL) was added to the reaction mixture to initiate the reaction; • 6. The mixture was incubated at room temperature for 2 hours; • 7. The radioactivity was detected by filter-binding method; • 8. Kinase activity data represented the percentage of remaining kinase activity in the assay sample compared to the vehicle (dimethyl sulfoxide) reaction.

Sequence of BTK^C481S (Q06187 whole entry C481S): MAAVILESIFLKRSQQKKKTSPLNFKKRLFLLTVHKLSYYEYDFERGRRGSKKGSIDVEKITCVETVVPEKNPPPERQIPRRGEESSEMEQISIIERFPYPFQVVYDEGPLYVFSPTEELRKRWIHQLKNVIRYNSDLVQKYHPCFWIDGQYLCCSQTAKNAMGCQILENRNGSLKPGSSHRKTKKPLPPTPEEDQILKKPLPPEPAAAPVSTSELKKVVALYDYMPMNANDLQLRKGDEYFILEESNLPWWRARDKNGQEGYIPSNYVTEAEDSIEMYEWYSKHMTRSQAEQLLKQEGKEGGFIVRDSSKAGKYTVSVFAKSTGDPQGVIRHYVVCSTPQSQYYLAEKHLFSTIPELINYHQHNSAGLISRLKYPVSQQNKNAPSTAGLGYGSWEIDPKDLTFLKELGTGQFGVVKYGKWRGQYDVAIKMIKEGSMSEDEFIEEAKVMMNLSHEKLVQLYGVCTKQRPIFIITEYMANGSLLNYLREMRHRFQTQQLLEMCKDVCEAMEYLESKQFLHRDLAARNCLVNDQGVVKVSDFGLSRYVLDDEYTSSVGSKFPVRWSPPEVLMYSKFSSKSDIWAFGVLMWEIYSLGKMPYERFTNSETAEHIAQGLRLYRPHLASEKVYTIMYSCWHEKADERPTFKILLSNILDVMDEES

IC50 [nM] | Compound
10.7 | N#C[C@@H]1CC[C@@H](Nc2ncnc3[nH]cc(C(=O)c4ccc(Oc5ccccc5)cc4Cl)c23)CO1 [Compound 5]
6.5 | N#CC[C@@H]1CC[C@@H](Nc2ncnc3[nH]cc(C(=O)c4ccc(Oc5ccccc5)cc4Cl)c23)CO1 [Compound 6]
6.7 | O=C(c1ccc(Oc2ccccc2)cc1Cl)c1c[nH]c2ncnc(N[C@H]3CO[C@H](CO)C[C@@H]3F)c12 [Compound 3]
43.6 | CO[C@H]1C[C@@H](CO)OC[C@@H]1Nc1ncnc2[nH]cc(C(=O)c3ccc(Oc4ccccc4)cc3Cl)c12 [Compound 7]
14.9 | CO[C@@H]1C[C@@H](CO)OC[C@@H]1Nc1ncnc2[nH]cc(C(=O)c3ccc(Oc4ccccc4)cc3F)c12 [Compound 10]
12.5 | O=C(c1ccc(Oc2ccccc2)cc1Cl)c1c[nH]c2ncnc(N[C@H]3CO[C@H](CO)CC3(F)F)c12 [Compound 2]
39.8 | CO[C@@H]1C[C@@H](CO)OC[C@@H]1Nc1ncnc2[nH]cc(C(=O)c3ccc(Oc4ccccc4F)cc3Cl)c12 [Compound 12]
15.1 | [2H]C([2H])([2H])O[C@@H]1C[C@@H](CO)OC[C@@H]1Nc1ncnc2[nH]cc(C(=O)c3ccc(Oc4ccccc4)cc3Cl)c12 [Compound 13]
8.9 | O=C(c1ccc(Oc2ccccc2)cc1Cl)c1c[nH]c2ncnc(N[C@H]3CO[C@H](CO)C[C@H]3OCCO)c12 [Compound 8]
15.2 | CO[C@@H]1C[C@@H](CO)OC[C@@H]1Nc1ncnc2[nH]cc(C(=O)c3ccc(Oc4ccccc4)cc3C)c12 [Compound 9]
1.7 | O=C(c1ccc(Oc2ccccc2)cc1Cl)c1c[nH]c2ncnc(N[C@H]3CO[C@H](CO)C4CC43)c12 (stereo partly shown) [Compound 1]

tested on: TMD8 cells; assay: BTK cell activity assay (CellTiter Glo); type: cell-based; settings: Homo sapiens, Cell Titer Glo, read-out: Relative IC50
Method: 1. Cell Culture and Passage
The medium, trypsin and 1×PBS used in the cell passage process were preheated in a 37° C. water bath. The supernatant was aspirated.
1 mL of trypsin was added to rinse, and the rinse solution was aspirated. 1 mL of trypsin was added, respectively, and cells were digested at 37° C. until the cells fell off. 10 mL of culture medium was added and mixed well. The mixture was centrifuged at 1000 rpm for 5 min and the cells were resuspended in 10 mL of culture medium. 0.7 mL of cell suspension was pipetted into a counting cup and counted on ViCell XR to respectively obtain a cell density of 0.327 million/mL. 1.17 mL of cell suspension and culture medium were weighed, respectively, to dilute the cell suspension. According to the microplate layout diagram below, 100 μL of phosphate buffer was added to the peripheral wells of the 384-well microplate, and 40 μL of cell suspension was added to other wells, respectively. The cell plate was then cultured in an incubator.
2. Dosing • (1) Preparation of compound:
A 9 μL dilution of the compound to be assayed was added to a shallow-well plate for Pod (Labcyte, #LP-0200). The shallow-well plate was centrifuged at 2500 rpm for 30 s. • (2) The cell plate was removed from the incubator. • (3) According to the microplate layout diagram below, compounds were serially diluted 3-fold in Pod to obtain 10 concentrations. The diluted compounds were added to the cell plate at 100 nL, respectively, and then the cell plate was returned to the incubator for culture. • 3. At Day 0, 20 μL of CellTiter Glo was added to the plate with DMSO added, and the mixture was shaken in the dark for 10 minutes. The plate was read with Envision. • 4. At Day 5: CTG was added and the plate was read. • (1) After being cultured for 72 h, 20 μL of Cell Titer Glo was added to the cell plate, and the mixture was shaken in the dark for 10 minutes. • (2) The plate was read with Envision.
Assay Results • 1. Average value and standard deviation of 0% inhibition (DMSO well, MAX) and 100% inhibition (day 0, DMSO) in each group were calculated; • 2. […]

Compound | IC50 [nM]
O=C(c1ccc(Oc2ccccc2)cc1Cl)c1c[nH]c2ncnc(N[C@H]3CO[C@H](CO)C[C@@H]3F)c12 [Compound 3] | 217
O=C(c1ccc(Oc2ccccc2)cc1Cl)c1c[nH]c2ncnc(N[C@H]3CO[C@H](CO)CC3(F)F)c12 [Compound 2] | 269

From patent US20230357248A1, “PYRROLOPYRIMIDINE COMPOUND AS BTK INHIBITOR AND USE THEREOF” (MEDSHINE DISCOVERY INC., priority 2019, published 2023)
